# Patent US10961215B2, “N-aryl and N-heteroaryl piperidine derivatives as liver X receptor beta agonists, compositions, and their use” (Merck Sharp & Dohme Corp., priority 2016, dated 2021)
# Columns and labels:
# [1] = molecular target: T1, GST tagged LXRbeta LBD (ligand binding domain) (Homo sapiens, UniProt P55055); assay: LanthaScreen TR-FRET Liver X Receptor Coactivator Assay, LXR beta-LBD (co-activator recruitment; IP and % Emax relative to T0901317); type: biochemical; conditions: for EC50: Inflection Point of co-activator recruitment, LXR beta-LBD, TR-FRET; for Emax: efficacy at max dose in relation to reference T0901317, LXR beta-LBD, read-out: LXR beta actiivty at max dose (%)
# T1 construct: purchased Invitrogen pv4658.pps
# T1 sequence (P55055 222-460 limits assumed): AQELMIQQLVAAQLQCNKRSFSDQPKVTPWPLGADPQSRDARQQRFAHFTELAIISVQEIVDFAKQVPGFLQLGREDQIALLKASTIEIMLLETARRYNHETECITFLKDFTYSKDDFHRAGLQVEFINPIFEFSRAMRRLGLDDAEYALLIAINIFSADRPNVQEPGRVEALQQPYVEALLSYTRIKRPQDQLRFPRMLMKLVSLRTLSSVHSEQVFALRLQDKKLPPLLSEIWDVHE
# How it was run: (§1)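 Agonist-induced recruitment of a fluorescein-tagged coactivator peptide to the LBD is detected via terbium anti-GST TR-FRET.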
# [2] = molecular target: T2, GST tagged LXRalpha LBD (ligand binding domain) (Homo sapiens, UniProt Q13133); assay: LanthaScreen TR-FRET Liver X Receptor Coactivator Assay, LXR alpha-LBD (co-activator recruitment; IP and % Emax relative to T0901317); type: biochemical; conditions: for LXR alpha IP (nM) / EC50: Inflection Point of co-activator recruitment, LXR alpha-LBD, TR-FRET; for Emax: efficacy at max dose in relation to reference T0901317, LXR alpha-LBD, read-out: LXR alpha actiivty at max dose (%)
# T2 construct: purchased Invitrogen pv4655
# T2 sequence (Q13133 209-447 limits assumed): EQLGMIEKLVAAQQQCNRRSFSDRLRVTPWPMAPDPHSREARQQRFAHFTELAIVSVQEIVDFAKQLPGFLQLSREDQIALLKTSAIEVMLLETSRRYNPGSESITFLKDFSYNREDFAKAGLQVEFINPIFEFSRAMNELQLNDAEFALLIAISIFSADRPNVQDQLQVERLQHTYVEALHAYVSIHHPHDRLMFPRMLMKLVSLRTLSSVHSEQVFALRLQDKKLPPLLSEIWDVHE
# How it was run: as §1
EC50 [1],Emax [1],LXR alpha IP (nM) [2],Emax [2],EC50 [2],SMILES
285 nM,26%,No IP,0%,–,"CN(C)C(=O)c1ccc(N2CCC(CCCN(C)C(=O)[C@@]3(c4ccccc4Cl)CCCO3)CC2)nc1Cl [Example 1-64, (S)-2-chloro-6-(4-(3-(2-(2-chlorophenyl)-N-methyltetrahydrofuran-2-carboxamido)propyl)piperidin-1-yl)-N,N-dimethylnicotinamide]"
138 nM,82%,No IP,7%,–,"CN(C)C(=O)c1ccc(N2CCC(CCCN(C)C(=O)[C@]3(c4ccccc4)CC(F)(F)CO3)CC2)nc1Cl [Example 1-66, (R)-2-chloro-6-(4-(3-(4,4-difluoro-N-methyl-2-phenyltetrahydrofuran-2-carboxamido)propyl)piperidin-1-yl)-N,N-dimethylnicotinamide]"
686 nM,51%,No IP,18%,–,"COc1cccc([C@@](O)(C(=O)N(C)CCCC2CCN(c3ccc(C(=O)NC(C)C)c(Cl)n3)CC2)C(F)(F)F)c1 [Example 2-1, (R)-2-chloro-N-isopropyl-6-(4-(3-(3,3,3-trifluoro-2-hydroxy-2-(3-methoxyphenyl)-N-methylpropanamido)propyl)piperidin-1-yl)nicotinamide]"
688 nM,44%,No IP,7%,–,"COc1cccc([C@@](O)(C(=O)N(C)CCCC2CCN(c3ccc(C(=O)NC4CC4)c(Cl)n3)CC2)C(F)(F)F)c1 [Example 2-2, (R)-2-chloro-N-cyclopropyl-6-(4-(3-(3,3,3-trifluoro-2-hydroxy-2-(3-methoxyphenyl)-N-methylpropanamido)propyl)piperidin-1-yl)nicotinamide]"
107 nM,42%,No IP,0%,–,"COc1cccc([C@@](O)(C(=O)N(C)CCCC2CCN(c3ccc(C(=O)N(C)C4CC4)c(Cl)n3)CC2)C(F)(F)F)c1 [Example 2-3, (R)-2-chloro-N-cyclopropyl-N-methyl-6-(4-(3-(3,3,3-trifluoro-2-hydroxy-2-(3-methoxyphenyl)-N-methylpropanamido)propyl)piperidin-1-yl)nicotinamide]"
24 nM,61%,No IP,0%,–,"COc1cccc([C@@](O)(C(=O)N(C)CCCC2CCN(c3ccc(C(=O)N(C)C(C)C)c(Cl)n3)CC2)C(F)(F)F)c1 [Example 2-4, (R)-2-chloro-N-isopropyl-N-methyl-6-(4-(3-(3,3,3-trifluoro-2-hydroxy-2-(3-methoxyphenyl)-N-methylpropanamido)propyl)piperidin-1-yl)nicotinamide]"
28 nM,63%,–,23%,705 nM,"COc1cccc([C@@](O)(C(=O)N(C)CCCC2CCN(c3ccc(C(=O)N(C)CCO)c(Cl)n3)CC2)C(F)(F)F)c1 [Example 2-5, (R)-2-chloro-N-(2-hydroxyethyl)-N-methyl-6-(4-(3-(3,3,3-trifluoro-2-hydroxy-2-(3-methoxyphenyl)-N-methylpropanamido)propyl)piperidin-1-yl)nicotinamide]"
126 nM,50%,No IP,0%,–,"COc1cccc([C@@](O)(C(=O)N(C)CCCC2CCN(c3ccc(C(=O)N4CCCC4)c(Cl)n3)CC2)C(F)(F)F)c1 [Example 2-6, (R)-N-(3-(1-(6-chloro-5-(pyrrolidine-1-carbonyl)pyridin-2-yl)piperidin-4-yl)propyl)-3,3,3-trifluoro-2-hydroxy-2-(3-methoxyphenyl)-N-methylpropanamide]"
420 nM,43%,No IP,4%,–,"COc1cccc([C@@](O)(C(=O)N(C)CCCC2CCN(c3ccc(C(=O)N4CC[C@@H](CO)C4)c(Cl)n3)CC2)C(F)(F)F)c1 [Example 2-7, (R)-N-(3-(1-(6-chloro-5-((R)-3-(hydroxymethyl)pyrrolidine-1-carbonyl)pyridin-2-yl)piperidin-4-yl)propyl)-3,3,3-trifluoro-2-hydroxy-2-(3-methoxyphenyl)-N-methylpropanamide]"
11 nM,47%,–,40%,690 nM,"COc1cccc([C@@](O)(C(=O)N(C)CCCC2CCN(c3ccc(C(=O)N4CC[C@H](CO)C4)c(Cl)n3)CC2)C(F)(F)F)c1 [Example 2-8, (R)-N-(3-(1-(6-chloro-5-((S)-3-(hydroxymethyl)pyrrolidine-1-carbonyl)pyridin-2-yl)piperidin-4-yl)propyl)-3,3,3-trifluoro-2-hydroxy-2-(3-methoxyphenyl)-N-methylpropanamide]"
9 nM,65%,–,45%,164 nM,"COc1cccc([C@@](O)(C(=O)N(C)CCCC2CCN(c3ccc(C(=O)N4CC(NC(=O)OC(C)(C)C)C4)c(Cl)n3)CC2)C(F)(F)F)c1 [Example 2-9, (R)-tert-butyl 1-(2-chloro-6-(4-(3-(3,3,3-trifluoro-2-hydroxy-2-(3-methoxyphenyl)-N-methylpropanamido)propyl)piperidin-1-yl)nicotinoyl) azetidin-3-ylcarbamate]"
134 nM,43%,No IP,0%,–,"COc1cccc([C@@](O)(C(=O)N(C)CCCC2CCN(c3ccc(C(=O)N4C(C)CCC4C)c(Cl)n3)CC2)C(F)(F)F)c1 (stereo partly drawn) [Example 2-10, (2R)-N-(3-(1-(6-chloro-5-(2,5-dimethylpyrrolidine-1-carbonyl)pyridin-2-yl)piperidin-4-yl)propyl)-3,3,3-trifluoro-2-hydroxy-2-(3-methoxyphenyl)-N-methylpropanamide]"
524 nM,60%,No IP,13%,–,"CNC(=O)c1ccc(N2CCC(CCCN(C)C(=O)[C@](O)(c3cccc(OC)c3)C(F)(F)F)CC2)nc1Cl [Example 2-11, (R)-2-chloro-N-methyl-6-(4-(3-(3,3,3-trifluoro-2-hydroxy-2-(3-methoxyphenyl)-N-methylpropanamido)propyl)piperidin-1-yl)nicotinamide]"
11 nM,62%,–,40%,95 nM,"COc1cccc([C@@](O)(C(=O)N(C)CCCC2CCN(c3ccc(C(=O)N(C)Cc4noc(C5CC5)n4)c(Cl)n3)CC2)C(F)(F)F)c1 [Example 2-12, (R)-2-chloro-N-((5-cyclopropyl-1,2,4-oxadiazol-3-yl)methyl)-N-methyl-6-(4-(3-(3,3,3-trifluoro-2-hydroxy-2-(3-methoxyphenyl)-N-methylpropanamido)propyl)piperidin-1-yl)nicotinamide]"
195 nM,60%,No IP,11%,–,"COc1cccc([C@@](O)(C(=O)N(C)CCCC2CCN(c3ccc(C(=O)N4CC(N)C4)c(Cl)n3)CC2)C(F)(F)F)c1 [Example 2-13, (R)-N-(3-(1-(5-(3-aminoazetidine-1-carbonyl)-6-chloropyridin-2-yl)piperidin-4-yl)propyl)-3,3,3-trifluoro-2-hydroxy-2-(3-methoxyphenyl)-N-methylpropanamide]"
83 nM,67%,No IP,14%,–,COc1cccc([C@@](O)(C(=O)N(C)CCCC2CCN(c3ccc(C(=O)N(C)CCn4cncn4)c(Cl)n3)CC2)C(F)(F)F)c1 [Example 2-14]
272 nM,49%,No IP,0%,–,"COc1cccc([C@@](O)(C(=O)N(C)CCCC2CCN(c3ccc(C(=O)N4CCC4)c(Cl)n3)CC2)C(F)(F)F)c1 [Example 2-15, (R)-N-(3-(1-(5-(azetidine-1-carbonyl)-6-chloropyridin-2-yl)piperidin-4-yl)propyl)-3,3,3-trifluoro-2-hydroxy-2-(3-methoxyphenyl)-N-methylpropanamide]"
296 nM,54%,No IP,12%,–,"COc1cccc([C@@](O)(C(=O)N(C)CCCC2CCN(c3ccc(C(N)=O)c(Cl)n3)CC2)C(F)(F)F)c1 [Example 2-16, (R)-2-chloro-6-(4-(3-(3,3,3-trifluoro-2-hydroxy-2-(3-methoxyphenyl)-N-methylpropanamido)propyl)piperidin-1-yl)nicotinamide]"
5730 nM,22%,No IP,0%,–,"COc1cccc([C@@](O)(C(=O)N(C)CCCC2CCN(c3ccc(C(=O)N(C)C)c(C4CC4)n3)CC2)C(F)(F)F)c1 [Example 2-17, (R)-2-cyclopropyl-N,N-dimethyl-6-(4-(3-(3,3,3-trifluoro-2-hydroxy-2-(3-methoxyphenyl)-N-methylpropanamido)propyl)piperidin-1-yl)nicotinamide]"
